From the RepoRT retention time repository (doi:10.1016/j.foodchem.2021.129757)

Key:
Conditions in all cases: stereoisomer not certain
[1] = RP, Phenomenex Luna C18, 150 × 4.6 mm, 3 µm, 25 °C, 0.5 mL/min, estimated dead time 3.2 min; A: water + 0.1% formic acid, pH 3; B: acetonitrile + 0.1% formic acid, pH 3; gradient (min/%B) 0/0 30/30 35/40 50/80 52/80 60/0 65/0
[2] = RP, Merck LiChrospher RP-18, 250 × 4 mm, 5 µm, 35 °C, 0.3 mL/min, estimated dead time 6.7 min; A: water + 0.5% formic acid; B: acetonitrile + 0.5% formic acid; gradient (min/%B) 0/5 10/5 30/15 45/20 65/20 95/54 110/63 115/5 135/5
[3] = RP, Waters ACQUITY UPLC BEH C18, 100 × 2.1 mm, 1.7 µm, 65 °C, 0.4 mL/min, estimated dead time 0.55 min; A: water + 0.1% formic acid, pH 3; B: 80% acetonitrile + 20% acetone + 0.1% formic acid, pH 3; gradient (min/%B) 0/0 5/100 5.5/0 6/0
[4] = RP, Waters ACQUITY UPLC BEH Shield RP18, 100 × 2.1 mm, 1.7 µm, 30 °C, 0.6 mL/min, estimated dead time 0.37 min; A: water + 0.1% formic acid, pH 3; B: acetonitrile + 0.1% formic acid, pH 3; gradient (min/%B) 0/0 2/0 7/10 22/95 22.1/0 26/0
[5] = RP, Merck Supelco SUPELCOSIL LC-C18, 250 × 4.6 mm, 5 µm, 40 °C, 1 mL/min, estimated dead time 2.6 min; A: water + 0.1% trifluoroacetic acid, pH 2; B: acetonitrile + 0.1% trifluoroacetic acid, pH 2; gradient (min/%B) 0/5 45/35 47/75 49/35 50/5
[6] = RP, Agilent InfinityLab Poroshell 120 EC-C18, 100 × 3 mm, 2.7 µm, 25 °C, 0.4 mL/min, estimated dead time 1.1 min; A: water + 0.1% formic acid, pH 3; B: acetonitrile + 0.1% formic acid, pH 3; gradient (min/%B) 0/5 10/25 20/40 24/90 25/90 26/5 30/5
[7] = RP, Waters Atlantis T3, 100 × 2.1 mm, 3 µm, 40 °C, 0.3 mL/min, estimated dead time 0.73 min; A: water + 0.1% trifluoroacetic acid, pH 2; B: acetonitrile + 0.1% trifluoroacetic acid, pH 2; gradient (min/%B) 0/10 1/10 6/40 7/50 8/50 14/70 16/80 20/10 25/10
[8] = RP, Waters ACQUITY UPLC HSS T3, 100 × 2.1 mm, 1.8 µm, 30 °C, 0.4 mL/min, estimated dead time 0.55 min; A: water + 0.1% formic acid, pH 3; B: acetonitrile + 0.1% formic acid, pH 3; gradient (min/%B) 0/0 2/0 15/100 22/100 22.1/0 26/0
[9] = RP, Waters ACQUITY UPLC BEH Shield RP18, 150 × 2.1 mm, 1.7 µm, 40 °C, 0.4 mL/min, estimated dead time 0.83 min; A: water + 0.1% formic acid, pH 3; B: acetonitrile + 0.1% formic acid, pH 3; gradient (min/%B) 0/0 30/50 31/100 37/100 37.1/0
[10] = RP, 150 × 2.1 mm, 2.6 µm, 40 °C, 0.35 mL/min, estimated dead time 0.94 min; A: water + 0.1% formic acid, pH 3; B: acetonitrile + 0.1% formic acid, pH 3; gradient (min/%B) 0/0 1/0 12.5/100 14/100 14.2/0 15/0
[11] = RP, 150 × 2.1 mm, 2.6 µm, 40 °C, 0.35 mL/min, estimated dead time 0.94 min; A: water + 0.1% formic acid, pH 3; B: acetonitrile + 0.1% formic acid, pH 3; gradient (min/%B) 0/0 1/5 7/45 8.5/80 10.5/80 11/5 12/5
[12] = RP, Waters ACQUITY UPLC HSS T3, 100 × 2.1 mm, 50 °C; A: water + 0.1% formic acid, pH 3; B: 30% methanol + 70% acetonitrile + 0.1% formic acid, pH 3; gradient (min/%B) 0/5 1/8 2/15 3/40 4/70 4.5/100 5/100 6.4/100 6.6/5 6.8/5 7/5
[13] = RP, Phenomenex Synergi Hydro-RP, 250 × 2 mm, 4 µm, 25 °C, 0.2 mL/min, estimated dead time 2.5 min; A: water + 0.1% formic acid, pH 3; B: acetonitrile + 0.1% formic acid, pH 3; gradient (min/%B) 0/0.5 7/0.5 12/12.5 25/16.3 47/35 48/65 50/65 50.1/0.5
[14] = RP, Phenomenex Kinetex EVO C18, 100 × 2.1 mm, 2.6 µm, 40 °C, 0.4 mL/min, estimated dead time 0.55 min; A: water + 0.2% formic acid; B: acetonitrile + 0.2% formic acid; gradient (min/%B) 0/5 0.5/5 7/95 8/95 8.5/5 12/5
[15] = RP, Agilent ZORBAX Eclipse XDB-C18, 100 × 2.1 mm, 1.8 µm, 50 °C, 0.4 mL/min, estimated dead time 0.55 min; A: water + 0.1% formic acid, pH 3; B: methanol + 0.1% formic acid, pH 3; gradient (min/%B) 0/2 10/100 14.5/100 14.51/2 16.5/2
[16] = RP, Agilent ZORBAX RRHD Eclipse Plus C18, 50 × 2.1 mm, 1.8 µm, 30 °C, 0.4 mL/min, estimated dead time 0.28 min; A: water + 0.1% formic acid, pH 3; B: acetonitrile + 0.1% formic acid, pH 3; gradient (min/%B) 0/1 5/10 8/25 9.1/99 10/99 12/1
[17] = Other, Phenomenex Kinetex PFP, 100 × 4.6 mm, 5 µm, 45 °C, 0.6 mL/min, estimated dead time 1.8 min; A: water + 0.1% trifluoroacetic acid, pH 2; B: methanol; gradient (min/%B) 0/40 20/72 21/40

SMILES	LC retention time [2] [min]	LC retention time [3] [min]	LC retention time [5] [min]	LC retention time [6] [min]	LC retention time [7] [min]	also measured
O=c1oc2c(O)c(O)cc3c(=O)oc4c(O)c(O)cc1c4c23 [Ellagic acid]	60.3	1.91	24.8	8.97	7.94	LC retention time [1]: 14.2 min; LC retention time [4]: 13.1 min
O=c1cc(-c2ccccc2)oc2cc(O)cc(O)c12 [Chrysin]	–	–	39.4	22.2	–	–
O=c1c(-c2ccc(O)cc2)coc2cc(O)ccc12 [Daidzein]	–	2.53	34.6	12.9	–	LC retention time [8]: 10.7 min; LC retention time [9]: 17.9 min
COc1cc(C(=O)O)cc(OC)c1O [Syringic acid]	–	1.8	15.5	6.44	5.12	LC retention time [10]: 5.04 min; LC retention time [11]: 4.88 min; LC retention time [12]: 3.33 min; LC retention time [13]: 23.1 min
O=C(OC1Cc2c(O)cc(O)cc2OC1c1cc(O)c(O)c(O)c1)c1cc(O)c(O)c(O)c1 (single isomer, unassigned; (-)) [(-)-Epigallocatechin gallate]	–	–	16.9	–	6.14	LC retention time [10]: 5.08 min; LC retention time [11]: 5.02 min; LC retention time [14]: 4.38 min
CC1OC(OCC2OC(Oc3cc4c(O)cc(=O)cc-4oc3-c3ccc(O)cc3)C(O)C(O)C2O)C(O)C(O)C1O (centres undefined) [Pelargonidin-3-O-rutinoside]	–	–	24.3	–	–	–
O=c1c(O)c(-c2ccc(O)c(O)c2)oc2cc(O)ccc12 [Fisetin]	–	–	30.9	–	–	LC retention time [8]: 10.2 min
O=C(O)C=Cc1ccccc1 [Cinnamic acid-trans]	92.9	2.79	35.6	–	–	LC retention time [12]: 2.74 min; LC retention time [15]: 6.27 min; LC retention time [9]: 16.2 min; LC retention time [16]: 9.09 min; LC retention time [13]: 46.7 min
O=c1cc(-c2ccc(O)cc2)oc2cc(O)cc(O)c12 [Apigenin]	97	–	43.2	16.3	10.1	LC retention time [9]: 23.6 min
O=C(OC1Cc2c(O)cc(O)cc2OC1c1ccc(O)c(O)c1)c1cc(O)c(O)c(O)c1 (centres undefined) [Epicatechin gallate]	58.6	–	–	–	–	LC retention time [17]: 5.76 min; LC retention time [10]: 5.67 min; LC retention time [11]: 5.72 min; LC retention time [8]: 9.36 min
OCC1OC(Oc2cc3c(OC4OC(CO)C(O)C(O)C4O)cc(O)cc3[o+]c2-c2ccc(O)c(O)c2)C(O)C(O)C1O (centres undefined) [Cyanidin-3,5-O-diglucoside]	–	–	16.4	–	–	–
